Source: US4578489A (priority 1982, dated 1986)
Read-outs that look alike come from different tables or passages of the source.

Key:
[1] = system: Enteromorpha intestinalis; assay: Action against Enteromorpha intestinalis: inhibitory concentration (MIC); assay type: in vivo; conditions: seawater containing biocide for entire test; concentration tested 0.5 mg/liter
Protocol: (§1) The action against the green alga Enteromorpha, which is the most important in seawter fouling, is investigated in sterile-filtered seawater containing an Erd-Schreiber solution. This solution is composed of a nutrient extract, phosphate and nitrate. The incubation of Enteromorpha intestinalis is carried out in a light thermostat at 18° C. under an alternation of 14 hours of light and 10 hours of darkness.
For determining the inhibitory concentration (MIC), the algae are kept in seawater containing biocide for the entire duration of the test (concentration tested: 0.5 mg/liter).

Alternaria alternata = assay: Minimum inhibitory concentration against fungi, agar incorporation test, strain N; assay type: cell-based; conditions: malt extract/agar
Method in brief: (§2)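 Growth inhibition read visually on agar plates spotted with trace fungal inoculum. Each compound was mixed into malt extract agar to give final levels of 2–100 mg/liter (2, 5, 10, 50, 100), and the MIC was recorded in mg/liter.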

Pseudomonas aeruginosa = assay: Minimum inhibitory concentration against bacteria, strain B; assay type: cell-based; conditions: 24 hours at 30° C.; tested at 100 and 300 mg/liter
Method in brief: (§3)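 Each strain, grown overnight in Caso peptone bouillon, is diluted 1/1000 in saline and again 1/1000 in fresh bouillon. After addition of compound (100 or 300 mg/liter) and 24 hours' shaking incubation at 30° C., turbidity indicates whether growth occurred.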

[2] = system: Enteromorpha intestinalis; assay: Action against Enteromorpha intestinalis: destruction (minimum killing concentration); assay type: in vivo; conditions: 4 hours in seawater, then 6-8 weeks in fresh seawater
Protocol: as §1
The algae which have been cultured in this way are exposed to the products under investigation for a short time (4 hours) in seawater. The minimum killing concentration (MKC) is determined by taking the algae out of the seawater containing a specific quantity of algicide, after the treatment time in the latter, washing the algae and investigating growth or mortality after incubation in fresh seawater for a further period of 6-8 weeks.
The minimum killing concentration (MKC) indicates the amount of substance required to cause such damage to the algae within a specific time that they can no longer recover in fresh seawater and die out.

[3] = system: Alcaligenes denitrificans; assay: Minimum inhibitory concentration against bacteria, strain E; assay type: cell-based; conditions: 24 hours at 30° C.; tested at 100 and 300 mg/liter
Method in brief: as §3

Artemia salina = assay: Action against Artemia salina nauplii; assay type: in vivo; parameters: key: 0: no change; 1: slight change; 1-2: animals are attacked; 2: animals are strongly attacked; 2-3: animals are nearly all dead; 3: animals are all dead
Protocol: The eggs, which are available commercially, are caused to hatch by vigorous aeration. When 2-3 days old, the nauplii are exposed to the products at various concentrations (concentrations tested: 2.5; 1; 0.5 and 0.25 mg/liter) in synthetic seawater, and are observed over a prolonged period of time.

Aspergillus niger = assay: Minimum inhibitory concentration against fungi, agar incorporation test, strain K; assay type: cell-based; conditions: malt extract/agar
Method in brief: as §2

Proteus vulgaris = assay: Minimum inhibitory concentration against bacteria, strain A; assay type: cell-based; conditions: 24 hours at 30° C.; tested at 100 and 300 mg/liter
Method in brief: as §3

Endomyces geotrichum = assay: Minimum inhibitory concentration against fungi, agar incorporation test, strain Q; assay type: cell-based; conditions: malt extract/agar
Method in brief: as §2

Aureobasidium pullulans [4] = assay: Growth on wood; parameters: key: 1: growth on the wood; 2: slight growth on the wood; 3: no growth on the wood; 4: no growth on the wood and an inhibitory zone; conditions: 28°, 4 weeks
Protocol: Small blocks of spruce wood, 7×10×10 mm in size, are dried in vacuo. The small blocks are then vacuum-impregnated by keeping them, in vacuo, in 100 ml of distilled water+biocide for 30 minutes and then subjecting them to a pressure treatment (2 atmospheres gauge by means of compressed air) for 18 hours in the water. The pieces of wood treated in this way are first subjected to leaching in running water and are then dried.
The dried pieces of wood are placed on potato/glucose agar and the wood, as well as the surrounding agar, is inoculated with 0.1 ml of a spore suspension of Aureobasidium pullulans. After incubation at 28° for 4 weeks, the growth is evaluated in accordance with the following rating: […]

Candida albicans = assay: Minimum inhibitory concentration against fungi, agar incorporation test, strain P; assay type: cell-based; conditions: malt extract/agar
Method in brief: as §2

Penicillium funiculosum = assay: Minimum inhibitory concentration against fungi, agar incorporation test, strain M; assay type: cell-based; conditions: malt extract/agar
Method in brief: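 Compounds incorporated into malt extract agar at final 2, 5, 10, 50 and 100 mg/liter, then inoculated dropwise with fungus. Value is the concentration (mg/liter) inhibiting growth.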

Aureobasidium pullulans [5] = assay: Minimum inhibitory concentration against fungi, agar incorporation test, strain R; assay type: cell-based; conditions: malt extract/agar
Method in brief: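 Compounds incorporated in malt extract agar at final 2, 5, 10, 50 and 100 mg/liter. Agar inoculated dropwise with traces of fungus. Value is the concentration (mg/liter) needed to inhibit growth.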

Serratia marcencens = assay: Minimum inhibitory concentration against bacteria, strain D; assay type: cell-based; conditions: 24 hours at 30° C.; tested at 100 and 300 mg/liter
Method in brief: as §3

Bacillus subtilis = assay: Minimum inhibitory concentration against bacteria, strain F; assay type: cell-based; conditions: 24 hours at 30° C.; tested at 100 and 300 mg/liter
Method in brief: as §3

[6] = system: Cladosporium cladosporioides; assay: Minimum inhibitory concentration against fungi, agar incorporation test, strain O; assay type: cell-based; conditions: malt extract/agar
Method in brief: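 Compounds incorporated into malt extract agar at final concentrations of 2, 5, 10, 50 and 100 mg/liter, with fungal traces added dropwise. Value is the concentration (mg/liter) required to inhibit fungal growth.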

Enterobacter aerogenes = assay: Minimum inhibitory concentration against bacteria, strain C; assay type: cell-based; conditions: 24 hours at 30° C.; tested at 100 and 300 mg/liter
Method in brief: as §3

Chlorella vulgaris = assay: Action against algae: Chlorella vulgaris; assay type: cell-based; parameters: key: --: no growth on the agar, 3 ppm have destroyed the algae in 6 hours; conditions: 3 mg/liter; for Growth on the agar (algae-destroying action): 6 hours exposure, 14 days incubation; for Growth in the medium (growth inhibition): 14 days
Method in brief: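 14-day cultures diluted 1/200 in nutrient medium received compound at 3 mg/liter final. After 6 h, samples were spotted on algae/agar for algicidal action; growth inhibition in medium and killing on agar assessed visually after 14 days under 14 h light/10 h dark.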

Chaetomium globosum = assay: Minimum inhibitory concentration against fungi, agar incorporation test, strain S; assay type: cell-based; conditions: malt extract/agar
Method in brief: as §2

[7] = system: mixed culture of bacteria; assay type: cell-based; parameters: key: +: growth, no destruction; (+): growth less than that of control (>10 colonies), slight destruction; (-): slight growth (1-10 colonies); -: no growth, destruction
Aspergillus phoenicis = assay: Minimum inhibitory concentration against fungi, agar incorporation test, strain L; assay type: cell-based; conditions: malt extract/agar
Method in brief: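 Agar incorporation test in malt extract agar with compound at final 2, 5, 10, 50 and 100 mg/liter, inoculated dropwise with fungus; value is concentration (mg/liter) inhibiting growth.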

[8] = 5 mg/l, culture diluted 1/1000 in Tyrode
[9] = 5 mg/l, culture diluted 1/10000 in Tyrode
[10] = 10 mg/l, culture diluted 1/1000 in Tyrode
[11] = 10 mg/l, culture diluted 1/10000 in Tyrode
[12] = 30 mg/l, culture diluted 1/1000 in Tyrode
[13] = 30 mg/l, culture diluted 1/10000 in Tyrode
[14] = 60 mg/l, culture diluted 1/1000 in Tyrode
[15] = 60 mg/l, culture diluted 1/10000 in Tyrode
[16] = 100 mg/l, culture diluted 1/1000 in Tyrode
[17] = 100 mg/l, culture diluted 1/10000 in Tyrode

SMILES: CCCCCCCCCCCCCC[N+](C)(C)Cc1ccccc1.CCC[CH2][Sn-]([Cl])([Cl])([CH2]CCC)[CH2]CCC [Example 2, dimethyl-benzyl-tetradecylammonium tributyldichlorostannate-(IV)]
- MIC [1]: 0.5 µg/mL
- MIC against fungi, strain N (Alternaria alternata): 2 µg/mL
- MIC against bacteria, strain B (Pseudomonas aeruginosa): 100 µg/mL
- Destruction, 5 mg/liter [2]: yes
- MIC against bacteria, strain E [3]: 100 µg/mL
- Action against Artemia salina (Artemia salina; 0,5 mg/l, 6 hours): 1-2
- Action against Artemia salina (Artemia salina; 0,5 mg/l, 24 hours): 2-3
- Action against Artemia salina (Artemia salina; 0,5 mg/l, 48 hours): 3
- Action against Artemia salina (Artemia salina; 0,25 mg/l, 6 hours): 0-1
- Action against Artemia salina (Artemia salina; 0,25 mg/l, 24 hours): 2
- Action against Artemia salina (Artemia salina; 0,25 mg/l, 48 hours): 2-3
- Action against Artemia salina (Artemia salina; 1 mg/l, 6 hours): 2
- Action against Artemia salina (Artemia salina; 1 mg/l, 24 hours): 3
- Action against Artemia salina (Artemia salina; 1 mg/l, 48 hours): 3
- Action against Artemia salina (Artemia salina; 2,5 mg/l, 6 hours): 2-3
- Action against Artemia salina (Artemia salina; 2,5 mg/l, 24 hours): 3
- Action against Artemia salina (Artemia salina; 2,5 mg/l, 48 hours): 3
- MIC against fungi, strain K (Aspergillus niger): 2 µg/mL
- MIC against bacteria, strain A (Proteus vulgaris): 100 µg/mL
- MIC against fungi, strain Q (Endomyces geotrichum): 5 µg/mL
- growth on wood, leached for 5 days (Aureobasidium pullulans [4]; 0.01 % in H2 O): 4
- growth on wood, not leached (Aureobasidium pullulans [4]; 0.01 % in H2 O): 4
- growth on wood, leached for 5 days (Aureobasidium pullulans [4]; 0.05 % in H2 O): 4
- growth on wood, not leached (Aureobasidium pullulans [4]; 0.05 % in H2 O): 4
- MIC against fungi, strain P (Candida albicans): 5 µg/mL
- MIC against fungi, strain M (Penicillium funiculosum): 2 µg/mL
- MIC against fungi, strain R (Aureobasidium pullulans [5]): 2 µg/mL
- MIC against bacteria, strain D (Serratia marcencens): 100 µg/mL
- MIC against bacteria, strain F (Bacillus subtilis): 100 µg/mL
- MIC against fungi, strain O [6]: 2 µg/mL
- MIC against bacteria, strain C (Enterobacter aerogenes): 100 µg/mL
- Growth on the agar (algae-destroying action) (Chlorella vulgaris): --
- Growth in the medium (growth inhibition) (Chlorella vulgaris): --
- MIC against fungi, strain S (Chaetomium globosum): 2 µg/mL
- Growth (destruction of a mixed culture of bacteria) [7, 8]: +
- Growth (destruction of a mixed culture of bacteria) [7, 9]: +
- Growth (destruction of a mixed culture of bacteria) [7, 10]: +
- Growth (destruction of a mixed culture of bacteria) [7, 11]: +
- Growth (destruction of a mixed culture of bacteria) [7, 12]: (+) (growth less than that of control (>10 colonies), slight destruction)
- Growth (destruction of a mixed culture of bacteria) [7, 13]: -
- Growth (destruction of a mixed culture of bacteria) [7, 14]: (+) (growth less than that of control (>10 colonies), slight destruction)
- Growth (destruction of a mixed culture of bacteria) [7, 15]: -
- Growth (destruction of a mixed culture of bacteria) [7, 16]: (-) (slight growth (1-10 colonies))
- Growth (destruction of a mixed culture of bacteria) [7, 17]: -
- MIC against fungi, strain L (Aspergillus phoenicis): 2 µg/mL

SMILES: CCCCCCCCCCCC[n+]1ccccc1.CCC[CH2][Sn-]([Cl])([Cl])([CH2]CCC)[CH2]CCC [Example 6, Pyridine-Nlauryl / Tributyldichloro]
- MIC [1]: 0.5 µg/mL
- MIC against fungi, strain N (Alternaria alternata): 2 µg/mL
- MIC against bacteria, strain B (Pseudomonas aeruginosa): 100 µg/mL
- Destruction, 5 mg/liter [2]: yes
- MIC against bacteria, strain E [3]: 100 µg/mL
- Action against Artemia salina (Artemia salina; 0,5 mg/l, 6 hours): 1-2
- Action against Artemia salina (Artemia salina; 0,5 mg/l, 24 hours): 2-3
- Action against Artemia salina (Artemia salina; 0,5 mg/l, 48 hours): 3
- Action against Artemia salina (Artemia salina; 0,25 mg/l, 6 hours): 1
- Action against Artemia salina (Artemia salina; 0,25 mg/l, 24 hours): 2
- Action against Artemia salina (Artemia salina; 0,25 mg/l, 48 hours): 2-3
- Action against Artemia salina (Artemia salina; 1 mg/l, 6 hours): 2
- Action against Artemia salina (Artemia salina; 1 mg/l, 24 hours): 3
- Action against Artemia salina (Artemia salina; 1 mg/l, 48 hours): 3
- Action against Artemia salina (Artemia salina; 2,5 mg/l, 6 hours): 2-3
- Action against Artemia salina (Artemia salina; 2,5 mg/l, 24 hours): 3
- Action against Artemia salina (Artemia salina; 2,5 mg/l, 48 hours): 3
- MIC against fungi, strain K (Aspergillus niger): 2 µg/mL
- MIC against bacteria, strain A (Proteus vulgaris): 100 µg/mL
- MIC against fungi, strain Q (Endomyces geotrichum): 5 µg/mL
- growth on wood, leached for 5 days (Aureobasidium pullulans [4]; 0.01 % in H2 O): 4
- growth on wood, not leached (Aureobasidium pullulans [4]; 0.01 % in H2 O): 4
- growth on wood, leached for 5 days (Aureobasidium pullulans [4]; 0.05 % in H2 O): 4
- growth on wood, not leached (Aureobasidium pullulans [4]; 0.05 % in H2 O): 4
- MIC against fungi, strain P (Candida albicans): 5 µg/mL
- MIC against fungi, strain M (Penicillium funiculosum): 5 µg/mL
- MIC against fungi, strain R (Aureobasidium pullulans [5]): 2 µg/mL
- MIC against bacteria, strain D (Serratia marcencens): 100 µg/mL
- MIC against bacteria, strain F (Bacillus subtilis): 100 µg/mL
- MIC against fungi, strain O [6]: 2 µg/mL
- MIC against bacteria, strain C (Enterobacter aerogenes): 100 µg/mL
- Growth on the agar (algae-destroying action) (Chlorella vulgaris): --
- Growth in the medium (growth inhibition) (Chlorella vulgaris): --
- MIC against fungi, strain S (Chaetomium globosum): 2 µg/mL
- Growth (destruction of a mixed culture of bacteria) [7, 8]: +
- Growth (destruction of a mixed culture of bacteria) [7, 9]: +
- Growth (destruction of a mixed culture of bacteria) [7, 10]: +
- Growth (destruction of a mixed culture of bacteria) [7, 11]: +
- Growth (destruction of a mixed culture of bacteria) [7, 12]: +
- Growth (destruction of a mixed culture of bacteria) [7, 13]: +
- Growth (destruction of a mixed culture of bacteria) [7, 14]: +
- Growth (destruction of a mixed culture of bacteria) [7, 15]: +
- Growth (destruction of a mixed culture of bacteria) [7, 16]: +
- Growth (destruction of a mixed culture of bacteria) [7, 17]: +
- MIC against fungi, strain L (Aspergillus phoenicis): 2 µg/mL
